We go through two molecules from patent US7235715B2, “Virus-resistant transgenic plants expressing L3” (priority 1998, dated 2007).

Test [1] deals with programmed −1 ribosomal frameshifting. Put plainly: Programmed −1 ribosomal frameshifting, lacZ reporter plasmids p−1/p0 in yeast. The format is cell-based, Saccharomyces cerevisiae. Particulars: various concentrations, four hours.
For test [2] the test system is unchanged. Particulars: in cells and in in vitro translation extracts (ref. 19); cited from earlier work.
Another test deals with M1 killer virus. Particulars: cited from earlier work.

For the molecule `COc1ccc(C[C@H]2NC[C@H](O)[C@H]2OC(C)=O)cc1` [anisomycin], the “effect on programmed −1 ribosomal frameshifting” value in test [1] (mak8-1 strains) is on record as “neither anisomycin nor sparsomycin had any further effect”; in test [1] (wild-type cells) it was “altered ribosomal frameshifting”. The “effect on programmed −1 ribosomal frameshifting efficiencies” value in test [2] is recorded as “alter”. For the same molecule, the “loss of the yeast L-A and its satellite dsRNA virus M1” value in the test with M1 killer virus was “promote loss”.

For the molecule `CSC[S@+]([O-])C[C@H](CO)NC(=O)/C=C/c1c(C)[nH]c(=O)[nH]c1=O` [sparsomycin], the results for the “effect on programmed −1 ribosomal frameshifting” value in test [1] (mak8-1 strains) and in test [1] (wild-type cells) were “neither anisomycin nor sparsomycin had any further effect” and “altered ribosomal frameshifting”, respectively. Moreover, in test [2], the “effect on programmed −1 ribosomal frameshifting efficiencies” value is reported as “alter”. The “loss of the yeast L-A and its satellite dsRNA virus M1” value with M1 killer virus was “promote loss”.
